Test: Oral bioavailability by intraduodenal (id) dosing of minipigs, oil formulations, versus iv parent
Type: in vivo, Gottingen minipig
Settings: for Mini-Pig BioA: id 10 mg/kg, 10% by weight formulation, vs iv 1 mg/kg parent, AUC0-24 h
Method: Compounds were screened for oral bioavailability by injecting the formulated prodrugs directly into the duodenum (intraduodenal or id administration) of the minipig test subjects, thus bypassing the acidic environment of the stomach and thereby eliminating potentially misleading oral bioavailability results that could arise from alteration of the test article drug in the acid environment of the stomach.
The studies were conducted at Xenometrics LLC (Stillwell, Kans.) and the id bioavailability was determined using various axial ligand derivative complexes of GC4419, GC4444, GC4403 and GC4401.
Male Gottingen minipigs (4-5 mo old, 9-12 kg weight) were purchased from Marshall BioResources and housed at Xenometrics. […] The distal end was exteriorized with a reusable accessible hub (see surgical details below). During a recovery period of at least 2 weeks the minipigs were handled daily to acclimate them to the test procedures, i.e., id dosing and blood collections. For each experiment, each minipig received a test article drug dissolved or suspended in an excipient vehicle. […] All dosing experiments were conducted in fasted animals. Food was withdrawn from the minipigs 16 hours before dosing. The minipigs had ad libitum access to water. Dosed minipigs were allowed access to food 6 hour after dosing. The test article was administered at a dose of 10 mg/kg parent drug in 0.1 mL/kg vehicle (e.g., 1.5 mL in 15 kg minipig) as a bolus injection (˜1 minute) via the id cannula. The actual amount of total test article drug administered varied with the formula weight of the prodrug. An equal volume of excipient vehicle was used to flush the cannula after the test article was administered. Approximately 6 hours later, corn oil was used to flush the cannula. After approximately 24 hours post-dose, the catheter was flushed with sterile saline solution and capped. At the following time-points 0.25, 0.5, 1, 2, 4, 8, 24 and 48 hour post-injection, 2 mL blood samples were collected by cranial vena cava puncture (4 mL Sodium heparin Vacutainer, 20 g 1.5″ needle) after the skin surface was wiped with ethanol. The minipig was placed in a sling in a recumbent position without anesthesia for the collection of blood samples. The minipigs were never used more than once per 7 days for experimentation. The blood samples were kept on ice until processed for plasma. Blood samples were centrifuged at 1200×g for ten minutes at 4° C. and plasma samples were transferred to 96 well plate tubes, capped and stored at −20° C. until shipment on dry ice to the analytical laboratory used for measuring the concentration of drug in the plasma. The concentration of the parent manganese pentaaza macrocylic ring complex (independent of the composition of the axial ligands) was measured in plasma using a validated HPLC/MS/MS method that is linear between 50 ng/mL and 20,000 ng/mL.
Maisine 35-1 is chemically defined to be the monoglyceride glyceryl monolinoleate (NF) and was supplied by Gattefosse, SAINT-PRIEST Cedex, France. Labrasol (NF) is chemically defined to be caprylocaproyl polyoxyl-8 glycerides NF and was supplied by Gattefosse, SAINT-PRIEST Cedex, France. Labrafil M 1944 CS is chemically defined to be oleoyl polyoxyl-6 glycerides (NF), and is available from Gattefosse, SAINT-PRIEST Cedex, France. The dosing solutions were all prepared using a four place analytical balance by weighing all components of each formulation so that 10% by weight of each formulation contained the test article drug substance and 90% by weight of the oil used for that formulation.
The bioanalytical method which is used to quantitate the parent Mn(II) macrocyclic ring ligand structure in plasma utilizes HPLC with MS/MS detection and monitors the presence of the monocationic [monoformatoMn(pentaazamacrocycle)]+ complex. […]

Substance	Mini-Pig BioA (base oil Capmul MCM) [%]	Mini-Pig BioA (base oil Labrafil M2125 CS) [%]	Mini-Pig BioA (base oil Maisine 35-1) [%]	Mini-Pig BioA (base oil Peceol) [%]	further results
Manganese(II)bis-racemic-phenylglycinato[6R-Methyl(4aR,13aR,17aR,21 aR)-1,2,3,4,4a,5,6,12,13,13a,14,15,16,17,17a,18,19,20,21,21a-Eicosahydro-11,7-nitrilo-7H-dibenzo[b,h][1,4,7,10] tetraazacycloheptadecine-κN5, κN13, κN18, κN21, κN22]- [GC4716]	34	–	–	–	–
Manganese(II)bis-octanoato[(4aS,13aS,17aS,21aS)-1,2,3,4,4a,5,6,12,13,13a,14,15,16,17,17a,18,19,20,21,21a-Eicosahydro-11,7-nitrilo-7H-dibenzo[b,h][1,4,7,10] tetraazacycloheptadecine-κN5, κN13, κN18, κN21, κN22]- [GC4710]	13	21	8	–	–
Manganese(II)bis-racemic-2-phenylpropionato[(4aS,13aS,17aS,21 aS)-1,2,3,4,4a,5,6,12,13,13a,14,15,16,17,17a,18,19,20,21,21a-Eicosahydro-11,7-nitrilo-7H-dibenzo[b,h][1,4,7,10] tetraazacycloheptadecine-κN5, κN13, κN18, κN21, κN22]- [GC4705]	23	–	–	24	–
Manganese(II)bis-racemic-phenylglycinato[(4aR,13aR,17aR,21 aR)-1,2,3,4,4a,5,6,12,13,13a,14,15,16,17,17a,18,19,20,21,21a-Eicosahydro-11,7-nitrilo-7H-dibenzo[b,h][1,4,7,10] tetraazacycloheptadecine-κN5, κN13, κN18, κN21, κN22]- [GC4717]	26	–	–	–	–
Manganese(II)bis-phenylacetato[(4aS,13aS,17aS,21aS)-1,2,3,4,4a,5,6,12,13,13a,14,15,16,17,17a,18,19,20,21,21a-Eicosahydro-11,7-nitrilo-7H-dibenzo[b,h][1,4,7,10] tetraazacyclo-heptadecine-κN5, κN13, κN18, κN21, κN22]- [GC4718]	32	–	28	–	–
Manganese(II)bis-acetato[(4aS,13aS,17aS,21aS)-1,2,3,4,4a,5,6,12,13,13a,14,15,16,17,17a,18,19,20,21,21a-Eicosahydro-11,7-nitrilo-7H-dibenzo[b,h][1,4,7,10] tetraazacycloheptadecine-κN5, κN13, κN18, κN21, κN22]- [GC4701]	15	16	8	11	–
Manganese(II)bis-phenylglyoxaloto[(4aS,13aS,17aS,21aS)-1,2,3,4,4a,5,6,12,13,13a,14,15,16,17,17a,18,19,20,21,21a-Eicosahydro-11,7-nitrilo-7H-dibenzo[b,h][1,4,7,10]tetraazacyclohepta-decine-κN5, κN13, κN18, κN21, κN22]- [GC4719]	25	–	31	28	–
Manganese(II)bis-L-phenylglycinato[(4aS,13aS,17aS,21 aS)-1,2,3,4,4a,5,6,12,13,13a, 14,15,16,17,17a,18,19,20,21,21a-Eicosahydro-11,7-nitrilo-7H-dibenzo[b,h][1,4,7,10]tetraazacyclo-heptadecine-κN5, κN13, κN18, κN21, κN22]- [GC4702]	43	25	–	29	Mini-Pig BioA (base oil Miglyol 812 N): 42%; oral bioavailability, comparison in words (id dosing of minipigs, various oils): much better absorbed
Manganese(II)bis-n-Butyrato[(4aS,13aS,17aS,21aS)-1,2,3,4,4a,5,6,12,13,13a,14,15,16,17,17a,18,19,20,21,21a-Eicosahydro-11,7-nitrilo-7H-dibenzo[b,h][1,4,7,10] tetraazacycloheptadecine-κN5, κN13, κN18, κN21, κN22]- [GC4713]	–	21	–	18	–
Manganese(II)bis-propionato[(4aR,13aR,17aR,21 aR)-1,2,3,4,4a,5,6,12,13,13a,14,15,16,17,17a,18,19,20,21,21a-Eicosahydro-11,7-nitrilo-7H-dibenzo[b,h][1,4,7,10] tetraazacycloheptadecine-κN5, κN13, κN18, κN21, κN22]- [GC4748]	–	22	–	–	–
Manganese(II)bis-propionato[6R-Methyl(4aR,13aR,17aR,21 aR)-1,2,3,4,4a,5,6,12,13,13a,14,15,16,17,17a,18,19,20,21,21a-Eicosahydro-11,7-nitrilo-7H-dibenzo[b,h][1,4,7,10] tetraazacycloheptadecine-κN5, κN13, κN18, κN21, κN22]- [GC4747]	–	20	–	–	–
Manganese(II)bis-L-phenylalaninato[(4aS,13aS,17aS,21 aS)-1,2,3,4,4a,5,6,12,13,13a,14, 15,16,17,17a,18,19,20,21,21a-Eicosahydro-11,7-nitrilo-7H-dibenzo[b, h][1,4,7,10]tetraazacyclo-heptadecine-κN5, κN13, κN18, κN21, κN22]- [GC4704]	10	–	–	–	–
Manganese(II)bis-pivaloato[(4aS,13aS,17aS,21aS)-1,2,3,4,4a,5,6,12,13,13a,14,15,16,17,17a,18,19,20,21,21a-Eicosahydro-11,7-nitrilo-7H-dibenzo[b,h][1,4,7,10] tetraazacycloheptadecine-κN5, κN13, κN18, κN21, κN22]- [GC4709]	17	22	–	–	–
Manganese(II)bis-racemic-phenylglycinato[(4aS,13aS,17aS,21 aS)-1,2,3,4,4a,5,6,12,13,13a,14,15,16,17,17a,18,19,20,21,21a-Eicosahydro-11,7-nitrilo-7H-dibenzo[b,h][1,4,7,10] tetraazacycloheptadecine-κN5, κN13, κN18, κN21, κN22]- [GC4720]	33	–	–	–	Mini-Pig BioA (base oil Miglyol 812 N): 32%
Manganese(II)bis-racemic-phenylglycinato[2S, 21 S-Dimethyl(4aR,13aR,17aR,21 aR)-1,2,3,4,4a,5,6,12,13,13a,14,15,16,17,17a,18,19,20,21,21a-Eicosahydro-11,7-nitrilo-7H-dibenzo[b,h][1,4,7,10] tetraazacycloheptadecine-κN5, κN13, κN18, κN21, κN22]- [GC4715]	36	–	–	–	–
Manganese(II)bis-propionato[(4aS,13aS,17aS,21aS)-1,2,3,4,4a,5,6,12,13,13a,14,15,16,17,17a,18,19,20,21,21a-Eicosahydro-11,7-nitrilo-7H-dibenzo[b,h][1,4,7,10] tetraaza-cycloheptadecine-κN5, κN13, κN18, κN21, κN22]- [GC4711]	27	44	29	29	Mini-Pig BioA (base oil Labrafil M1944 CS): 23%

Source: patent US11066433B2, “Pentaaza macrocyclic ring complexes possessing oral bioavailability” (Galera Labs, LLC, priority 2015, dated 2021)
